Values after ≈ are worked out from the molar mass of the structure shown. Read-outs that look alike come from different tables or passages of the source. Numbered stars: 1 amine (or outer) side, 2 acyl side, 3 side chain; on linkers, the order of the positions; unused ones are H or OH. Bridge positions count the residues as written; N and C are the ends. Side chains are listed from the residue outwards. Peptide text beside a SMILES is read from it. * marks the point of attachment. C20 diacid = O=C(O)CCCCCCCCCCCCCCCCCCC(=O)*; γGlu = O=C(O)[C@H](CCC(=O)[*:2])N[*:1]

One data set has as its target T1, hCTR (Homo sapiens, UniProt P30988).
T1 sequence (P30988 25-474): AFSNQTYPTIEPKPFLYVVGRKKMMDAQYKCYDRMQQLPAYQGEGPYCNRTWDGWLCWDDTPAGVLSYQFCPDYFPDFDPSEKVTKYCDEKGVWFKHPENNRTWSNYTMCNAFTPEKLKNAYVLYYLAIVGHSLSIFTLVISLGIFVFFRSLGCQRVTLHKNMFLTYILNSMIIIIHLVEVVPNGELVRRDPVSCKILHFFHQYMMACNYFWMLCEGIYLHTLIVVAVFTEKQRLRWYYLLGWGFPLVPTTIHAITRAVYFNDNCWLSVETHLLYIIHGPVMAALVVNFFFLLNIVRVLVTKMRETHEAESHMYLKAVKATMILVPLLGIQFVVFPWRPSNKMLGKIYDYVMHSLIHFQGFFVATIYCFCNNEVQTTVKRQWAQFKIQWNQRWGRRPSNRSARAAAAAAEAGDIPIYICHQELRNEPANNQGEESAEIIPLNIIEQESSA
Description: cAMP-responsive element luciferase reporter assay, human CTR. Type of data set: cell-based. The settings on record: luciferase (human receptor assay). (In general: A reporter such as luciferase makes a cellular process visible.)

Data set [1] in a line: Solubility versus pH profile.
Another data set deals with T2, hAMY3R (Homo sapiens, UniProt O60896+P30988).
T2 sequence (P30988 25-474): T1 sequence (P30988 25-474)
T2 sequence (O60896 24-148 partner): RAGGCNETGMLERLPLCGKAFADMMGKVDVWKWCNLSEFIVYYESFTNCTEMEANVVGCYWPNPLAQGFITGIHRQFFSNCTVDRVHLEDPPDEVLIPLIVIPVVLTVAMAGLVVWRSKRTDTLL
Description: cAMP-responsive element luciferase reporter assay, human AMY3R. Type of data set: cell-based. Set-up: expressed in transfected cells. The note with it: for EC50: luciferase (human receptor assay).

Data set [2] is described as follows: HMWP content by size-exclusion chromatography. Type of data set: physicochemical. The note with it: covalent dimers and polymers prior to fibril formation testing, SEC, % of total absorbance area at 215 nm. As to the method:
The stability properties of the individual amylin analogs were assessed with respect to their propensity toward amyloid fibril formation. The relative amount of covalent dimers and polymers (HMWP) present prior to fibril formation testing was measured as a control for the potential inhibitory effect of HMWP on fibril formation propensity as reported elsewhere.[39]
Elution was performed under isocratic conditions with the following mobile phase prepared in Milli-Q water (Millipore A/S): 0.5 M NaCl, 10 mM sodium dihydrogen monohydrate, 5 mM ortho-phosphoric acid, 50% (v/v) 2-propanol. The amount of HMWP was determined as the absorbance area of the corresponding peaks given in percentage of the total absorbance area. The molar extinction coefficients of the molecules eluting in the HMWP fraction and the main peak was assumed to be equal.
For orientation: Size exclusion chromatography separates by hydrodynamic size, large species first.

Data set [3] is described as follows: ThT assay: fibril formation propensity and peptide recovery. The format is physicochemical. The settings on record: for recovery: residual dissolved peptide after 45 h of shaking, centrifugation and 0.22 μm filtration, HPLC, relative to amount before stress. As for the experimental part:
The stability properties of the individual amylin analogs were assessed with respect to their propensity toward fibril formation, expressed as the time until fibril formation (measured as Lag time) and loss of dissolved peptide (assessed as Peptide Recovery). […] Samples were prepared as described previously (using the same methodology and materials) for a novel amylin-based analog candidate compound.[7]
Briefly, each compound was dissolved in 10 mM of glycylglycine buffer (pH 4.0) or HEPES buffer (pH 7.5) to a concentration of 250 μM, followed by ThT stock solution to a final concentration of 1 μM. Each solution was aliquoted into a microtiter plate (200 μL/well) sealed with a transparent adhesive sheet. Mechanical stress was applied at 37 °C incubation (960 rpm, 1 mm amplitude) with 20 min fluorescence reading intervals for 45 h (filters: excitation 444 nm; emission 485 nm). Each peptide was tested in experiments consisting of four replicas (e.g., four wells on the same plate), and the lag time of each replica was determined by visual inspection of the fluorescence-versus-time plot. For wells where no fibril formation could be detected, the lag time was set longer than the test period (>45 h). The lag time of the peptide was set to the lowest lag time of the four replicates (conservative estimate). Some of the peptides were tested in more than one experiment, and the lag time results given in Tables 6 and 9 represent the average of these experiments. The ThT time course data given in Supporting Information represent the average and SEM of each experiment.[40] After analysis, wells representing individual replicas were pooled, and the residual soluble peptide was isolated using centrifugation (20,000 g/30 min at room temperature) followed by […] filtration. The amount of residual dissolved peptide was determined using an HPLC with a flow rate of 2 mL/min at 30 °C and 215/276 nm detection. A gradient combining eluent A (7.7% w/w acetonitrile, 200 mM Na2SO4, 20 mM NaH2PO4, 20 mM Na2HPO4, pH 7.2) and eluent B (65.5% w/w acetonitrile) was applied. The amount of residual dissolved peptide was reported on a relative scale (Peptide Recovery) to the amount of dissolved peptide prior to mechanical stress.

The test system of another data set is rats. The experiment in a line: Acute food intake in rats. The format is in vivo, rat. The settings on record: single sc injection of 30 nmol/kg, relative to vehicle, mean ± SEM, n = 5–7 per group.

Broadly, the solubility (kinetic) is the concentration staying in solution when a stock, usually in DMSO, is diluted into the medium. In the case of `CC[C@H](C)[C@H](NC(=O)[C@@H]1CCCN1C(=O)CNC(=O)[C@H](Cc1ccccc1)NC(=O)[C@@H]1CCCN1C(=O)[C@H](CC(N)=O)NC(=O)[C@H](CO)NC(=O)[C@H](CO)NC(=O)[C@H](Cc1c[nH]cn1)NC(=O)[C@H](CCCNC(=N)N)NC(=O)[C@H](CC(C)C)NC(=O)[C@H](Cc1ccccc1)NC(=O)[C@H](CC(=O)O)NC(=O)[C@H](C)NC(=O)[C@H](CC(C)C)NC(=O)[C@H](CCCNC(=N)N)NC(=O)[C@H](CCC(N)=O)NC(=O)[C@@H](NC(=O)[C@H](C)NC(=O)[C@@H]1CSSC[C@H](NC(=O)[C@@H](N)CCCCNC(=O)CC[C@H](NC(=O)CC[C@H](NC(=O)CCCCCCCCCCCCCCCCCCC(=O)O)C(=O)O)C(=O)O)C(=O)N[C@@H](CC(N)=O)C(=O)N[C@@H]([C@@H](C)O)C(=O)N[C@@H](C)C(=O)N[C@@H]([C@@H](C)O)C(=O)N1)[C@@H](C)O)C(=O)N[C@@H](CC(C)C)C(=O)N[C@@H](CO)C(=O)N[C@@H](CO)C(=O)N[C@H](C(=O)N[C@@H](CC(N)=O)C(=O)N[C@H](C(=O)NCC(=O)N[C@@H](CO)C(=O)N[C@@H](CC(=O)O)C(=O)N[C@H](C(=O)N[C@@H](Cc1ccc(O)cc1)C(N)=O)[C@@H](C)O)C(C)C)[C@@H](C)O` [Peptide 4] (H-K([γGlu-γGlu-C20 diacid])CNTATCATQRLADFLRHSSNPFGPILSSTNVGSDTY-NH2; disulfide 2-7), the EC50 on hCTR (Tables S12 and S14, read-out: hCTR pEC50 (converted)) was 0.676 nM; at hCTR (BHK cells stably expressing hCTR and CRE-luciferase, 3 h, 37 °C, 10% FBS, read-out: hCTR EC50), 0.672 nM; at hAMY3R (Tables S12 and S14, read-out: hAMY3R pEC50 (converted)), 0.269 nM; on hAMY3R (BHK cells stably expressing hCTR+RAMP3 and CRE-luciferase, 3 h, 37 °C, 10% FBS, read-out: hAMY3R EC50), 0.267 nM. For the same molecule, the solubility (kinetic) is 173 µM (≈ 788 µg/mL) in data set [1] (bis-tris-propane buffer, pH 6, aqueous buffer); ≥ 200 µM in data set [1] (bis-tris-propane buffer, pH 6.5, aqueous buffer); ≥ 200 µM in data set [1] (bis-tris-propane buffer, pH 7, aqueous buffer); ≥ 200 µM in data set [1] (bis-tris-propane buffer, pH 7.5, aqueous buffer); ≥ 200 µM in data set [1] (bis-tris-propane buffer, pH 8, aqueous buffer); ≥ 200 µM in data set [1] (lactate buffer, pH 4, aqueous buffer). In data set [1] (lactate buffer, pH 5, aqueous buffer), this molecule yielded a solubility (kinetic) of 38 µM (≈ 173 µg/mL). Moreover, on hAMY3R (ratio of luciferase EC50 values), the “ratio hCTR/hAMY3R” value was found to be 2.5. Further, in data set [2] (analogs 1–9 (pH 7.5 series)), the HMWP worked out at 5%. Moreover, the “ThT, pH 7.5 lag-time” value in data set [3] (250 μM peptide, 10 mM HEPES pH 7.5, 1 μM ThT, 37 °C, 960 rpm, 45 h, lowest of four replicas, average of experiments) is recorded as 4 h. Moreover, the recovery in data set [3] (pH 7.5) amounted to 21%.

Regarding `CC[C@H](C)[C@H](NC(=O)[C@H](C)NC(=O)CNC(=O)[C@H](Cc1ccccc1)NC(=O)[C@H](CC(N)=O)NC(=O)[C@@H]1CCCN1C(=O)[C@H](CO)NC(=O)[C@H](CO)NC(=O)[C@H](Cc1c[nH]cn1)NC(=O)[C@H](CCCNC(=N)N)NC(=O)[C@H](CC(C)C)NC(=O)[C@H](Cc1ccccc1)NC(=O)[C@H](CC(N)=O)NC(=O)[C@H](C)NC(=O)[C@H](CC(C)C)NC(=O)[C@H](CCCNC(=N)N)NC(=O)[C@H](CCC(N)=O)NC(=O)[C@@H](NC(=O)[C@H](C)NC(=O)[C@@H]1CSSC[C@H](NC(=O)[C@H](CCCCN)NC(=O)COCCOCCNC(=O)CC[C@H](NC(=O)CCCCCCCCCCCCCCCCCCC(=O)O)C(=O)O)C(=O)N[C@@H](CC(N)=O)C(=O)N[C@@H]([C@@H](C)O)C(=O)N[C@@H](C)C(=O)N[C@@H]([C@@H](C)O)C(=O)N1)[C@@H](C)O)C(=O)N1CCC[C@H]1C(=O)N[C@@H](CO)C(=O)N[C@@H](CO)C(=O)N[C@H](C(=O)N[C@@H](CC(N)=O)C(=O)N[C@H](C(=O)NCC(=O)N[C@@H](CO)C(=O)N[C@@H](CCCNC(=N)N)C(=O)N[C@H](C(=O)N[C@@H](Cc1ccc(O)cc1)C(N)=O)[C@@H](C)O)C(C)C)[C@@H](C)O` [Peptide 15], the kinetic solubility in data set [1] (pH 4, aqueous buffer) was ≥ 200 µM; in data set [1] (pH 5, aqueous buffer), ≥ 200 µM; in data set [1] (pH 6, aqueous buffer), ≥ 200 µM; in data set [1] (pH 6.5, aqueous buffer) it was ≥ 200 µM; in data set [1] (pH 7, aqueous buffer), ≥ 200 µM; in data set [1] (pH 7.5, aqueous buffer) it was ≥ 200 µM. In data set [1] (pH 8, aqueous buffer), the solubility (kinetic) was ≥ 200 µM. Besides, in the data set with rats, the “Acute food intake reduction 24–48 h” value is on record as 0 ± 5%. The HMWP in data set [2] (analogs 10–21 (pH 4.0 series)) is given as 0.7%. Further, the “ThT, pH 4.0 lag-time” value in data set [3] (250 μM peptide, 10 mM glycylglycine pH 4.0, 1 μM ThT, 37 °C, 960 rpm, 45 h, lowest of four replicas, average of experiments) worked out at 27 h. The molecule also came in with a recovery in data set [3] (pH 4.0) of 67%.

Source of the values: paper PMC11284788, “NN1213 – A Potent, Long-Acting, and Selective Analog of Human Amylin” (Journal of Medicinal Chemistry, 2024).
